Measurements as given in US20160262390A1, “FIELD APPLICATION OF SUGARS TO INCREASE CROP YIELD” (Minn-Dak Farmers Cooperative, priority 2015, published 2016).

Columns and labels:
corn = assay: Pre-planting sugar application on corn, Foxhome; assay type: in vivo; conditions: for Yield / Yield Increase Compared to Check Average: MN; for number of treatments showing yield improvement compared to check average: six rates (25-250 pounds/Acre) per sugar, thirty in all
Description: The field trials were conducted simultaneously in two different planting locations for each of the crops. One location was near the community of Foxhome in Wilkin County, Minnesota (hereafter referred to as “Foxhome”) while the second location was near the community of Hickson in Cass County, North Dakota (hereafter referred to as “Hickson”). The Foxhome and Hickson locations are on opposite sides of the Red River along the border of Minnesota and North Dakota and separated by a distance exceeding 40 miles. Generally, the Foxhome location has heavier clay loam soil conditions while Hickson has sandy loam soil conditions.
At each of the Foxhome and Hickson locations, a total of thirty two (32) treatments were conducted for each crop (sugarbeets, soybeans, corn, wheat). Each treatment was replicated four times arranged in a Randomized Complete Block (RCB) Design in the same field. Each replication consisted of a plot measuring twenty five (25) feet in length and eleven (11) feet in width. In selecting the particular seed types for evaluation, popular commercial varieties to the region were utilized. For the row crops (sugarbeets, soybeans, corn) each replication included a width of six (6) rows with twenty two (22) inch row spacing and having a row length of twenty five (25) feet. The wheat was planted in accordance with standard commercial practices. To reduce/eliminate any treatment impacts between adjacent plots for the crops, only the four (4) interior rows of each plot were treated and evaluated for row crops, while for wheat, only the interior 7.33 feet of each plot were treated and evaluated. With the exception of the treatment program applied to the individual plots, which will be discussed below, conventional commercial growing practices for each planting location were otherwise followed during the field trials. While the individual plots at the same location, Hickson or Foxhome, experienced essentially the same growing conditions throughout the season, there were various differences associated with localized precipitation, general growing conditions, soil classification and the like, which contributed to performance differences between the Hickson and Foxhome locations.
The treatment regimen at each location for each of the tested crops included two (2) untreated treatments (Treatments 31 and 32) in which no sugar was applied and constitute the control elements. […] Six (6) treatments (Treatments 13-18) included the liquid application of high fructose corn syrup (hereafter “HFCS”) at varying rates. Six treatments (Treatments 19-24) included the liquid application of dextrose (hereafter “LIQDEX”) at varying rates. Six (6) treatments (Treatments 25-30) included the application of powdered cellulose (hereafter “POWCEL”) at varying rates. For the sugar applied in a solid form, granulated or powdered, field application was conducted via conventional broadcast spreading. For the sugar applied in a liquid form, a liquid concentrate was mixed and diluted with water in a tank and a conventional sprayer was configured such that the liquid was sprayed so as to have the same sugar equivalent (measured in pounds/per acre) as the sugar in solid form. Regardless of whether the sugar was applied as a solid or liquid, the sugar was applied directly onto the soil before spring tillage, lightly worked into the ground and followed by planting of the crop seed in the treated ground. A summary of application rates for each plot treatments are contained in Table 7 below and were used consistently with each of the crops (sugarbeets, soybeans, corn, wheat).
To test the impact of pre-planting application rates and sugar source on corn, identical field trials using Peterson Farms brand corn seed were conducted at the Foxhome and Hickson locations. Planting of the corn seed and harvest of the corn were conducted on the same dates so as to have essentially the same growing season. […]

sugarbeets = assay: In-furrow sugar and/or fertilizer application on sugarbeets, Foxhome; assay type: in vivo, sugarbeet; conditions: for Recoverable Sugar / Sugarbeets / Yield Increase Compared to Check: in-furrow
Description: In addition to testing pre-planting application of sugar, additional in-furrow application of sugar during sugarbeet planting was conducted. This testing was conducted at the Foxhome location and included ten (10) separate treatments. These treatments included one (1) untreated check treatment in which no sugar was applied and constitutes the control element. The treatments included one (1) treatment in which only a conventional fertilizer (liquid ammonium phosphate commonly and hereafter referred to as “10-34-0”) was applied in-furrow. […] Four (4) treatments included the in-furrow application of concentrated raw sugar juice (hereafter “CONCRJ”) at varying rates and/or 10-34-0. Liquid sugar is essentially comprised of sucrose. […] Liquid sugar, concentrated raw juice and 10-34-0 were all mixed and diluted with water in a tank and a conventional sprayer was configured such that the liquid was sprayed so as to have the desired sugar and fertilizer equivalent. For the sugar applied at rates of three gallons per acre, the sugar mixture was equivalent to 25 pounds per acre of sugar. […] In each replication, the liquid was applied into the furrow during planting of the sugarbeet seeds. A summary of the in-furrow sugar beet testing is contained in Table 16 below: […]

[1] = sugar 3 gal/acre + 10-34-0 3 gal/acre
[2] = sugar 3 gal/acre, 10-34-0 0 gal/acre
[3] = sugar 5 gal/acre + 10-34-0 3 gal/acre
[4] = sugar 5 gal/acre, 10-34-0 0 gal/acre

SMILES	Yield (corn; pre-planting 25 pounds/Acre)	Yield Increase Compared to Check Average (corn; pre-planting 25 pounds/Acre)	Yield (corn; pre-planting 50 pounds/Acre)	Yield Increase Compared to Check Average (corn; pre-planting 50 pounds/Acre)	Yield (corn; pre-planting 100 pounds/Acre)	Yield Increase Compared to Check Average (corn; pre-planting 100 pounds/Acre)	Yield (corn; pre-planting 150 pounds/Acre)	Yield Increase Compared to Check Average (corn; pre-planting 150 pounds/Acre)	Yield (corn; pre-planting 200 pounds/Acre)	Yield Increase Compared to Check Average (corn; pre-planting 200 pounds/Acre)	Yield (corn; pre-planting 250 pounds/Acre)	Yield Increase Compared to Check Average (corn; pre-planting 250 pounds/Acre)	number of treatments showing yield improvement compared to check average (corn)	other results
OC[C@H]1O[C@@](CO)(O[C@H]2O[C@H](CO)[C@@H](O)[C@H](O)[C@H]2O)[C@@H](O)[C@@H]1O [GS, sucrose]	271.62 Bushels/Acre	2.20%	272.13 Bushels/Acre	2.40%	274.80 Bushels/Acre	3.40%	263.34 Bushels/Acre	−0.91%	264.61 Bushels/Acre	−0.43%	260.71 Bushels/Acre	−1.90%	three of the six	
OC[C@H]1O[C@@](CO)(O[C@H]2O[C@H](CO)[C@@H](O)[C@H](O)[C@H]2O)[C@@H](O)[C@@H]1O [LIQSUC, sucrose]	264.82 Bushels/Acre	−0.35%	274.43 Bushels/Acre	3.26%	264.79 Bushels/Acre	−0.36%	270.66 Bushels/Acre	1.84%	271.85 Bushels/Acre	2.29%	263.78 Bushels/Acre	−0.75%	three of the six	recoverable sugar compared to the check treatment and to 10-34-0 only (sugarbeets; every in-furrow application of liquid sucrose): increase in recoverable sugar; recoverable sugar compared to the same amount of liquid sugar with no 10-34-0 (sugarbeets; in-furrow liquid sucrose plus 10-34-0): increase in recoverable sugar; Recoverable Sugar (sugarbeets; [1]): 6437.113 Pounds/Acred; Sugarbeets (sugarbeets; [1]): 26.3981 Tons/Acre; Yield Increase Compared to Check (sugarbeets; [1]): 12.79%; Recoverable Sugar (sugarbeets; [2]): 5777.0474 Pounds/Acred; Sugarbeets (sugarbeets; [2]): 23.42 Tons/Acre; Yield Increase Compared to Check (sugarbeets; [2]): 1.23%; Recoverable Sugar (sugarbeets; [3]): 6262.2908 Pounds/Acred; Sugarbeets (sugarbeets; [3]): 25.66 Tons/Acre; Yield Increase Compared to Check (sugarbeets; [3]): 9.73%; Recoverable Sugar (sugarbeets; [4]): 5881.91 Pounds/Acred; Sugarbeets (sugarbeets; [4]): 24.38 Tons/Acre; Yield Increase Compared to Check (sugarbeets; [4]): 3.06%
